One data set is described as follows: Zinc content. The format is physicochemical.
Data set [1] is described as follows: Anti-oxidant power: daily peroxide index (Ip) of linoleic acid containing the suspended agent. The note with it: for INDICES DE PEROXYDES: agent at 1 % suspended in linoleic acid, stored at 60°C. The protocol:
La mesure du pouvoir anti-oxydant est effectuée selon la méthode décrite par CARNAT et POURRAT (Ann. Pharm. Fr. 1979, 37, n° 3-4, p. 119-124) en remplaçant l'huile de lin par de l'acide linoléique.
L'oxydation de l'acide linoléique est suivie chaque jour par une mesure de l'indice de peroxydes Ip.
Dans un flacon contenant l'acide linoléique on ajoute 15 ml de CHC13, 20 ml d'acide acétique RP puis 1 ml de solution aqueuse saturée de KI. On agite 1 mn et on laisse reposer le flacon 5 mn à l'obscurité. Après avoir ajouté 100 ml d'eau on dose l'iode libéré par du thiosulfate de sodium 0,01 N. [formula] v = volume de Na2S2O3 versé dans le dosage v = volume de Na2S2O3 versé dans l'essai à blanc Ip est exprimé en mmoles d'oxygène/kg d'acide gras.
Remarque : v doit être voisin de O car un Ip élevé révèle une oxydation du KI par l'oxygène de l'air ou dissous dans les réactifs. Pour éviter cela, les réactifs et le solvant devront être débarrassés de l'oxygène dissous par barbotage de gaz inerte, ceci afin d'obtenir des résultats comparables.
Les différents agents anti-oxydants étudiés sont mis en suspension dans l'acide linoléique et les mélanges ainsi obtenus sont stockés à l'étuve (60°C).
Tous les jours un Ip est effectué sur les mélanges suivants : • 1 - acide thiosalicylique à 1 % • 2 - pyridine thione Zn à 1 % • 3 - thiosalicylate de Zn à 1 %.

The conditions of data set [2]: water.
Data set [3] in a line: Delay of auto-oxidation (Waginaire conditions): daily Ip in interesterified oil Labrafil M 1944 CS. The note with it: rank order by delay of the auto-oxidation maximum; dose 1/10 000 in Labrafil M 1944 CS, Ip daily for 90 days at 60°C. An excerpt: (Bulletin technique SFPA n° 60) l'évolution des peroxydes se fait en trois phases : • 1) évolution lente de l'Ip (non observée avec l'acide linoléique) • 2) évolution rapide de l'Ip (deux premiers jours) • 3) stabilisation et décroissance de l'Ip.
Cette dernière période apparaît après plusieurs semaines. L'auteur attribue ce phénomène à la formation de groupements carbonyles (aldéhydes et cétones).
On obtient un profil de courbe Ip = f(t) comportant un maximum d'auto-oxydation net.
L'anti-oxydant est d'autant plus efficace que le maximum d'auto-oxydation est-retardé.

The nature of data set [4]: Partition coefficients at 20°C. Type of data set: physicochemical. The procedure: 2°) Détermination des coefficients de partage à 20°C
Data set [5] is described as follows: Maximum solubility in water at 20°C, by spectroscopy.

Like-named read-outs stand apart in the source and are kept apart here.

Regarding thiosalicylate de zinc [Exemple 1], the “% Zinc” value in the data set “Zinc content” was 30%. Besides, the “INDICES DE PEROXYDES” value in data set [1] (0 (start)) is recorded as 0,6 millimoles D2 pour 1000 g d'acide linoléique; in data set [1] (1 jour) it was 45,5 millimoles D2 pour 1000 g d'acide linoléique; in data set [1] (2 jours) it was 84,4 millimoles D2 pour 1000 g d'acide linoléique; in data set [1] (3 jours), 99,5 millimoles D2 pour 1000 g d'acide linoléique; in data set [1] (4 jours), 103,9 millimoles D2 pour 1000 g d'acide linoléique. The activité anti-oxydante result in data set [1] (in words, compared with pyrithione zinc) was “excellente”. The “Solubilité maximum dans l'eau” value in data set [2] is listed as 1,80 mg % ml. Also, the Pouvoir anti-oxydant entry in data set [3] is listed as “thiosalicylate de Zinc > pyrithione zinc> acide thiosalicylique”. For the same compound, the “Valeurs de P” value was 0,05 in data set [4] (CHCl3 - eau) and 0,21 in data set [4] (Octanol-eau).
As for “chloro-5-thiosalicylate de zinc [Exemple 9]”, in the data set “Zinc content”, the “% Zinc” value is 25,7%.
Take `[O-][n+]1ccccc1[S-].[O-][n+]1ccccc1[S-].[Zn+2]` [pyrithione zinc]: the “% Zinc” value in “Zinc content” is given as 20,5%. Further, the “INDICES DE PEROXYDES” value is 0,7 millimoles D2 pour 1000 g d'acide linoléique in data set [1] (0 (start)); 98 millimoles D2 pour 1000 g d'acide linoléique in data set [1] (1 jour); 174,1 millimoles D2 pour 1000 g d'acide linoléique in data set [1] (2 jours); 177,6 millimoles D2 pour 1000 g d'acide linoléique in data set [1] (3 jours); 183,7 millimoles D2 pour 1000 g d'acide linoléique in data set [1] (4 jours). The “Solubilité maximum dans l'eau” value in data set [5] came to 2 mg % ml. Besides, the Pouvoir anti-oxydant entry in data set [3] is reported as “thiosalicylate de Zinc > pyrithione zinc> acide thiosalicylique”. Besides, the “Valeurs de P” value in data set [4] (CHCl3 - eau) is listed as 0,30; in data set [4] (Octanol-eau), 0,64.
On to “ortho thiocrésotinate de zinc [Exemple 7]”, for which the “% Zinc” value in the data set “Zinc content” was 28,1%.
The same measure, in the same setting: the result for “méthoxy-4-thiosalicylate de zinc [Exemple 8]” reads 26,3%.
In the case of `O=C(O)c1ccccc1S` [acide thiosalicylique], the “INDICES DE PEROXYDES” value in data set [1] (0 (start)) is reported as 0,8 millimoles D2 pour 1000 g d'acide linoléique; in data set [1] (1 jour), 117,2 millimoles D2 pour 1000 g d'acide linoléique; in data set [1] (2 jours) it was 191,9 millimoles D2 pour 1000 g d'acide linoléique; in data set [1] (3 jours), 202,7 millimoles D2 pour 1000 g d'acide linoléique; in data set [1] (4 jours) it was 204,2 millimoles D2 pour 1000 g d'acide linoléique. Besides, in data set [3], the Pouvoir anti-oxydant entry is reported as “thiosalicylate de Zinc > pyrithione zinc> acide thiosalicylique”.

Source of the values: patent EP0037318A1, “Composition, particularly useful in the treatment and prevention of dandruff and containing metallic derivatives of thiobenzoic acid” (PIERRE FABRE S.A., priority 1980, dated 1981).
